Data on one compound can be found in patent publication US20200157635A1, “DIAGNOSTIC AND THERAPEUTIC METHODS FOR CANCER” (Genentech, Inc., priority 2017, published 2020).

This experiment deals with patients with NSCLC. Put plainly: POPLAR phase II trial: atezolizumab vs docetaxel, efficacy by PD-L1, CXCL9, IFNG expression level. Format: in vivo, human. The protocol: An RNA-based molecular assay was used to evaluate the association between clinical response to treatment with atezolizumab (MPDL3280A), an anti-PD-L1 antibody, and expression levels of PD-L1, CXCL9, and IFNG in individuals with NSCLC enrolled in a phase II clinical trial in which atezolizumab was administered as a monotherapy.
The POPLAR (Clinical Trial ID No.: NCT01903993) patient population evaluated for PD-L1, CXCL9, and IFNG expression levels consisted of 215 patients. Patients were eligible for enrollment in the POPLAR study if they had locally advanced or metastatic (e.g., stage IIIB, stage IV, or recurrent) NSCLC; disease progression during or following treatment with a prior platinum-containing regimen for locally advanced, unresectable/inoperable, or metastatic NSCLC, or disease recurrence within 6 months of treatment with a platinum-based adjuvant/neoadjuvant regimen; measurable disease, as defined by RECIST v1.1; and an ECOG performance status of 0 or 1. Participants were randomized to receive either atezolizumab at a dose of 1200 mg intravenously every three weeks or docetaxel 75 mg per square meter (mg/m^2) intravenously every three weeks. Treatment with atezolizumab could be continued as long as participants were experiencing clinical benefit, i.e., in the absence of unacceptable toxicity or symptomatic deterioration attributed to disease progression.
To evaluate whether PD-L1, CXCL9, and IFNG gene expression status was associated with patient response to atezolizumab (MPDL3280A) treatment, the gene expression level of PD-L1, CXCL9, and IFNG was assessed in pre-treatment, FFPE tumor samples obtained from each patient. RNA was isolated from the FFPE tumor sections and PD-L1, CXCL9, and IFNG gene expression was measured using PCR-based methodology (Fluidigm). The expression level, expressed as the cycle threshold (Ct) for each of PD-L1, CXCL9, and IFNG was normalized to the expression level of a housekeeping gene (e.g., TMEM55B). The normalized expression value, dCt, where dCt(target gene)=Ct(control gene)−Ct(target gene) for each of PD-L1, CXCL9, and IFNG, was then averaged to obtain a single numerical averaged dCt value for the aggregate expression level of PD-L1, CXCL9, and IFNG.
Tumor specimens obtained from the patients were categorized into different high or low expression level subgroups based on the immune-score expression level of PD-L1, CXCL9, and IFNG relative to a cut-off value for a given percentile (25th, 50th, or 75th percentile) of the population. The 25th percentile was defined by the immune-score expression levels of PD-L1, CXCL9, and IFNG greater than or equal to 25% of all immune-score expression levels of PD-L1, CXCL9, and IFNG in the population analyzed. The 50th percentile was defined by the immune-score expression levels of PD-L1, CXCL9, and IFNG greater than or equal to 50% of all immune-score expression levels of PD-L1, CXCL9, and IFNG in the population analyzed. The 75th percentile was defined by the immune-score expression levels of PD-L1, CXCL9, and IFNG greater than or equal to 75% of all immune-score expression levels of PD-L1, CXCL9, and IFNG in the population analyzed. […]
The OS, PFS, and ORR endpoints from the POPLAR clinical trial were evaluated against the PD-L1, CXCL9, and IFNG expression level cut-offs defined herein (e.g., the 25%, 50%, and 75% expression level quartiles). […]

SMILES strings stand for the structures.

In the case of `CC(=O)O[C@@]12CO[C@@H]1C[C@H](O)[C@@]1(C)C(=O)[C@H](O)C3=C(C)[C@@H](OC(=O)[C@H](O)[C@@H](NC(=O)OC(C)(C)C)c4ccccc4)C[C@@](O)([C@@H](OC(=O)c4ccccc4)[C@H]21)C3(C)C` [docetaxel], the ORR is, setting by setting: (BEP (n = 113 vs 112)) 8%; (ITT (n = 144 vs 143)) 15% vs 15%; (PD-L1, CXCL9, IFNG expression level percentile ≥25%) 13%; (PD-L1, CXCL9, IFNG expression level percentile ≥50% (median)) 15%; (PD-L1, CXCL9, IFNG expression level percentile ≥75%) 13%.
